Laboratory results published in US20200283532A1, “TUMOUR-TARGETING PEPTIDE VARIANTS” (Cancer Research Technology Limited, priority 2017, published 2020).
Read-outs that look alike come from different tables or passages of the source.

Legend:
A375Pβ6 cells = assay type: cell-based
Method: Cells were trypsinised and resuspended into DMEM (serum-free media) to prepare a cell suspension of 4×10^6 cells/ml. From this point on everything was kept on ice. 50 μl of cell suspension were aliquoted into each flow tube. Peptides were diluted in ice-cold serum-free media to 200 nM giving the final concentration of 100 nM when 50 μl was added to the cell samples. The peptides were left on ice for 15 minutes then washed twice with flow media and centrifuged for 3 minutes at 1200 rpm in between each wash step. Mouse anti-biotin (50 μl at 1:200) was added to each sample for 15 minutes, then wash steps were repeated. Apart from the 0 time point, each of the time point samples were put in the incubator at 37° C. and at 15, 30 and 45 minutes the cells were fixed in 4% formaldehyde in PBS for 10 minutes, washed once in PBS and 0.1% Triton X-100 detergent added for 5 minutes, before washing in PBS again. Goat anti-mouse IgG conjugated to AlexaFLUOR 488 (1:250) was added (50 μl) to each sample and left for 15 minutes on ice in the dark. Samples were washed as above and resuspended to 30 μl. Samples were examined on an Imagestream X Mark II (Amnis, Merck) Imagestream images were assessed for internalisation compared with the 0 minute samples using on board software.
Internalisation Assay Method—Flow Cytometry
Cells were prepared as above except that no detergent was added prior to detecting the biotin with antibodies. Samples were analysed on a FACScalibur (Bekton-Dickinson) cytometer.
To assess ability to be internalized by cells at 37° C. (and thus potential vectors for therapies) we used Imagestream® cytometry and flow cytometry. Imagestream® takes a fluorescence image of each cell (FIG. 2C) enabling image analysis of the fluorescence on the surface versus the intracellular compartment. Histograms in FIG. 2C plot internalization relative to the 0 minute time point. For flow cytometry we monitored the loss of surface expression as the peptides were internalized.

[1] = biological target: T1, αvβ6 integrin (A375Pβ6 cells) (Homo sapiens, UniProt P06756+P18564); assay: Level of binding of biotinylated peptides to A375Pβ6 cells by flow cytometry; conditions: mean of up to four experiments; for A) Affinity: mean activity relative to biotinylated A20FMDV2 (100 nM): binding to A375Pβ6 at 100 nM, flow cytometry, commercial biotinylated A20FMDV2 = 1.00
T1 construct: expressed in transfected cells; host or cells: A375Pβ6 (transduced A375P melanoma cells; control line A375Ppuro)

[2] = tested on: A375Pβ6 (αvβ6) and A375Puro (control) xenografts; assay: Biodistribution of 111In-DTPA labelled peptides in tumour-bearing mice; assay type: in vivo, female CD1 Nu/Nu mice; conditions: 111In-DTPA peptide iv, mean ± SEM
Method: 2×10^6 cells in 100 μl were injected subcutaneously into the shoulders of female CD1 Nu/Nu mice. Tumours were grown subcutaneously on the left (A375Puro) and on the right (A375136) shoulder over two weeks. Once tumours had grown to approximately 5 mm diameter peptides were radiolabelled with Indium-111, and analysed by Radio-HPLC to determine labelling efficiency. The labelled peptides were diluted in sterile PBS/BSA and were dosed to give 0.3MBq per animal. Mice were then intravenously (tail-vein) injected with the radiolabelled peptide and are culled after 1 hour. Blood, organs and tumours were removed, weighed and residual activity was measured on a gamma counter (LKB Compugamma) the next day. Data were expressed as % Injected Dose/g tissue (% ID/g).
Immunocompromised mice (n=3-5) bearing A375Ppuro and A37546 tumours on opposite shoulders were given intravenous (iv) injections of […] of radiolabelled peptides 22-26 then killed 1 h later. Major organs and blood were collected immediately, weighed, and radioactivity determined. The data in Table 3 show the behaviour of the five DTPA-conjugated peptides tested; data are expressed as mean % injected dose/g tissue.

T1 sequence (P06756 31-889 limits assumed, stated change not applied): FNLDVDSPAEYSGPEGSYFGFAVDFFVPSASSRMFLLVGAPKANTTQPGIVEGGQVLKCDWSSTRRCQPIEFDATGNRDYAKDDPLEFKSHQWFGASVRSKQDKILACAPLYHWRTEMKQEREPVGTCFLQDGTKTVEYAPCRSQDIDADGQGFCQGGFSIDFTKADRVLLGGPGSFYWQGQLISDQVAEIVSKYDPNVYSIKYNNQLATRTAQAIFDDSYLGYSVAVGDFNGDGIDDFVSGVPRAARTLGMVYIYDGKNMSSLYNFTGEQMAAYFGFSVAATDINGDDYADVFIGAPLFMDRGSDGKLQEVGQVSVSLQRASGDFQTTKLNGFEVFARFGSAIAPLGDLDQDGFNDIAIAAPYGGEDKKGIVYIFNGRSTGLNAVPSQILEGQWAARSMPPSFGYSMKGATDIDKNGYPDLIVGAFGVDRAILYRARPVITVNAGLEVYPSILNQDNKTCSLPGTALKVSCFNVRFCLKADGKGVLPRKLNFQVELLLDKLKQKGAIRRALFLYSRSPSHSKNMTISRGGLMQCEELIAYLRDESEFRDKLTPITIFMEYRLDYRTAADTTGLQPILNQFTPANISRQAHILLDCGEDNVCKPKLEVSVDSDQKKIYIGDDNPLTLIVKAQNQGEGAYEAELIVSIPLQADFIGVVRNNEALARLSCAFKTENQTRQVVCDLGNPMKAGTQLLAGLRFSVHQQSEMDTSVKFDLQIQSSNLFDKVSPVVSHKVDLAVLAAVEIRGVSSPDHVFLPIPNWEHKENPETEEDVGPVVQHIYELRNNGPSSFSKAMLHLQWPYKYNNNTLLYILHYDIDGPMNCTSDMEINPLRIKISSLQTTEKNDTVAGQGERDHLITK
T1 sequence (P06756 891-1048 limits assumed, stated change not applied): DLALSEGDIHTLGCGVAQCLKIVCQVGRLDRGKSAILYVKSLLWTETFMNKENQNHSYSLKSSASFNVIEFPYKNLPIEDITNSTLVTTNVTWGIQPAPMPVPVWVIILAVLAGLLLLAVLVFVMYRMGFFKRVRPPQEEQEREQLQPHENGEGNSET
T1 sequence (P18564 22-788, stated change not applied): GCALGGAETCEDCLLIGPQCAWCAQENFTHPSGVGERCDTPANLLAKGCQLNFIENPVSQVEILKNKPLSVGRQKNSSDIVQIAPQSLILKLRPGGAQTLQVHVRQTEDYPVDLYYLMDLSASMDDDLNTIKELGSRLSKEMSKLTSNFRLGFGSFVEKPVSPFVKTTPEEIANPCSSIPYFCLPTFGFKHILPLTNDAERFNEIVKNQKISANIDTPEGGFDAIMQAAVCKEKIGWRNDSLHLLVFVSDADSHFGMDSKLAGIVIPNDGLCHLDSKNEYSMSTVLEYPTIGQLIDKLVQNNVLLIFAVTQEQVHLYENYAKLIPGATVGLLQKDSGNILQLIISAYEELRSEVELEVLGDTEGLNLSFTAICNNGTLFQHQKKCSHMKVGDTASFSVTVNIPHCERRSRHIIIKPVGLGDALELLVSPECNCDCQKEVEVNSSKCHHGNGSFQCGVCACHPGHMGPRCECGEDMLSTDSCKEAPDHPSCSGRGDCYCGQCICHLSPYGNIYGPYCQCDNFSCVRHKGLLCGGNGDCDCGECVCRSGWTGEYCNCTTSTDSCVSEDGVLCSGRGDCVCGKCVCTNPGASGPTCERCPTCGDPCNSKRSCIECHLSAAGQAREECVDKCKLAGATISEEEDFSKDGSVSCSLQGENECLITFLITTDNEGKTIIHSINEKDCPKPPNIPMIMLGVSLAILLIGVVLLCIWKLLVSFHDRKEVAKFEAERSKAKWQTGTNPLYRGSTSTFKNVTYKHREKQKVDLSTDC

Substance | B) Internalisation: mean % internalisation at 45 min relative to biotinylated A20FMDV2 (100 nM) (A375Pβ6 cells) | Relative Activity (A × B) (A375Pβ6 cells) | A) Affinity: mean activity relative to biotinylated A20FMDV2 (100 nM) [1] | other results
AcHN-NK(Biotin)VPNLRGDLQVLAQKVART-NH2 [Peptide 18] | 0.87 ± 0.12 | 1.09 | 1.25 ± 0.26 | Relative Activity value higher than the control peptide (A375Pβ6 cells): 9%
AcHN-NK(Biotin)VPNLRGDLQVLAQKVART-OH [Peptide 16] | 1.05 ± 0.24 | 1.55 |  | Relative Activity value higher than the control peptide (A375Pβ6 cells): 55%
DTPA-GNK(Biotin)VPNLRGDLQVLAQKVART-OH [Peptide 23] |  |  | 1.28 ± 0.23 | Relative Activity (A × B) (A375Pβ6 cells; binding affinity value multiplied by amount internalized, commercial biotinylated A20FMDV2 = 1.00): 1.24; B) Internalisation: mean % internalisation at 45 min relative to biotinylated A20FMDV2 (100 nM) (A375Pβ6 cells; flow cytometry, 100 nM, 45 min at 37° C., commercial biotinylated A20FMDV2 = 1.00): 0.97 ± 0.11; Bio-distribution, Blood ([2]; 1 h): 0.5 ± 0.16 % ID/g; Bio-distribution, Heart ([2]; 1 h): 0.6 ± 0.16 % ID/g; Bio-distribution, Intestines ([2]; 1 h): 3.8 ± 0.98 % ID/g; Bio-distribution, Liver ([2]; 1 h): 0.4 ± 0.06 % ID/g; Bio-distribution, Lung ([2]; 1 h): 4.4 ± 0.72 % ID/g; Bio-distribution, Muscle ([2]; 1 h): 0.8 ± 0.07 % ID/g; Bio-distribution, Pancreas ([2]; 1 h): 0.5 ± 0.13 % ID/g; Bio-distribution, Spleen ([2]; 1 h): 0.2 ± 0.07 % ID/g; Bio-distribution, Stomach ([2]; 1 h): 6.4 ± 2.33 % ID/g; Bio-distribution, Tail ([2]; 1 h): 4.3 ± 2.85 % ID/g; Bio-distribution, Tumour (Control) ([2]; A375Puro xenograft, mice culled after 1 h): 0.5 ± 0.15 % ID/g; Bio-distribution, Tumour (αvβ6) ([2]; A375Pβ6 xenograft, mice culled after 1 h): 3.7 ± 0.29 % ID/g
H2N-NK (Biotin) VPNLRGDLQV[norvaline]AQKVART-OH [Peptide 8] | 1.09 ± 0.17 | 0.84 | 0.77 ± 0.52 | 
H2N-NK (Biotin) VPNLRGDLQV[tert-butyl-alanine]AQKVART-OH [Peptide 11] | 1.03 ± 0.14 | 0.62 | 0.60 ± 0.23 | 
H2N-NK(Biotin)VPNLRGDLQVLAQ-N-MeKVART-OH [Peptide 6] | 0.89 ± 0.32 | 0.32 | 0.37 ± 0.12 | 
H2N-NK(Biotin)VPNLRGDLQVLAQKVART-NH2 [Peptide 17] | 1.07 ± 0.40 | 1.31 |  | Relative Activity value higher than the control peptide (A375Pβ6 cells): 31%
H2N-NK(Biotin)VPNLRGDLQVLAQKVART-OH [Peptide 1] | 0.84 ± 0.14 | 0.93 | 1.11 ± 0.15 | 
H2N-NK(Biotin)VPNLRGDLQVLAQKVARt-OH [Peptide 20] | 0.99 ± 0.25 | 0.53 | 0.53 ± 0.44 | 
H2N-NK(Biotin)VPNLRGDLQVLAQ[diaminopropionic acid]VART-OH [Peptide 5] | 0.96 ± 0.31 | 0.76 | 0.79 ± 0.14 | 
H2N-NK(Biotin)VPNLRGDLQVLAQ[ornithine]VART-OH [Peptide 3] | 0.86 ± 0.29 | 0.96 | 1.12 ± 0.16 | 
H2N-NK(Biotin)VPNLRGDLQVLAQkVART-OH [Peptide 2] | 0.78 ± 0.15 | 0.87 | 1.11 ± 0.15 | 
H2N-NK(Biotin)VPNLRGDLQV[2-amino-3-ethylpentanoic acid]AQKVART-OH [Peptide 13] | 0.52 ± 0.23 | 0.37 | 0.70 ± 0.33 | 
H2N-NK(Biotin)VPNLRGDLQV[adamantylglycine]AQKVART-OH [Peptide 15] | 1.07 ± 0.18 | 0.55 | 0.51 ± 0.28 | 
H2N-NK(Biotin)VPNLRGDLQV[allylglycine]AQKVART-OH [Peptide 10] | 0.82 ± 0.25 | 0.48 | 0.58 ± 0.25 | 
H2N-NK(Biotin)VPNLRGDLQV[aminoisobutyric acid]AQKVART-OH [Peptide 7] | 1.11 ± 0.3 | 1.19 | 1.07 ± 0.37 | 
H2N-NK(Biotin)VPNLRGDLQV[cyclohexylalanine]AQKVART-OH [Peptide 14] | 1.01 ± 0.32 | 0.62 | 0.62 ± 0.06 | 
H2N-NK(Biotin)VPNLRGDLQV[homoleucine]AQKVART-OH [Peptide 12] | 0.66 ± 0.14 | 0.27 | 0.45 ± 0.22 | 
H2N-NK(Biotin)VPNLRGDLQV[norleucine]AQKVART-OH [Peptide 9] | 1.15 ± 0.04 | 1.33 | 1.16 ± 0.29 | 
H2N-nK(Biotin)VPNLRGDLQVLAQKVART-OH [Peptide 19] | 0.89 ± 0.12 |  |  | Relative Activity value higher than the control peptide (A375Pβ6 cells): 27%; Average binding activity higher than the parent (commercially obtained biotinylated-A20FMDV2) ([1]; A375Pβ6, 100 nM): 43%
H2N-nK(Biotin)VPNLRGDLQVLAQKVARt-OH [Peptide 21] | 0.87 ± 0.27 |  |  | Relative Activity value higher than the control peptide (A375Pβ6 cells): 37%
N-NK(Biotin)VPNLRGDLQVLAQ[diaminobutyric acid]VART-OH [Peptide 4] | 0.86 ± 0.29 | 0.86 | 1.00 ± 0.07 | 
